# Source: patent US8349862B2, “Pyridine derivatives for the treatment of metabolic disorders related to insulin resistance or hyperglycemia” (Piramal Healthcare Limited, priority 2006, dated 2013)
# Values joined by “and” are separate entries in the source; they are usually repeats but may differ in a detail not shown here. Equal values may be shown once.
# How the values were obtained:
# [1] = test system: insulin resistant adipocytes (differentiated 3T3 L1 fibroblasts); test: In vitro model exhibiting insulin resistance: 14C-2-deoxyglucose uptake in dexamethasone-treated adipocytes; format: cell-based; settings: test compound 10 μM/mL, Rosiglitazone 0.1 μM; for Fold Vehicle (fold activity over vehicle, glucose uptake): vehicle = 1.0, cut off for activity 1.50 fold
# Method: The assay was designed as in reference, British Journal of Pharmacology, 130, 351-58, 2000, the disclosure of which is incorporated by reference for the teaching of the assay. The solution of test compound (10 μM/mL) was prepared in DMSO. […] Differentiation into adipocytes was induced by known methods as described below. (J. Biol. […] 3T3 L1 fibroblasts were seeded in 24- or 6-well plates at a density of 0.5-2×10^4 cells/well and were allowed to reach maximal confluency. The confluent fibroblasts were exposed to culture medium for 2 days. […] The mature adipocytes were exposed to dexamethasone, 100 nM added in ethanol, in culture medium and incubated for 2 days. […] The test compound was also present during this period. After 3-4 hours, the medium was aspirated and replaced with Kreb's Ringer phosphate (KRP) buffer at pH 7.4 and with human/porcine insulin, 200 nM. The cells were incubated for 30 minutes at 37° C. […] After exactly 5 minutes, the plates were transferred to ice trays and medium was rapidly aspirated. The cell layer was washed twice with ice-cold phosphate buffered saline, (PBS), pH 7.4. […] Non-specific glucose uptake was assayed in wells exposed to cytochalasin B, inhibitor of glucose transport. […] Statistical analysis was performed using unpaired t-test.
# [2] = test system: genetically diabetic db/db BL/6J mice; test: Screening in db/db BL/6J mice: reduction of plasma glucose; format: in vivo; settings: 10 days
# Method: The protocol was designed as in references. • 1.
# The screening of compounds was based on their ability to reduce the plasma glucose levels in genetically diabetic db/db BL/6J mice.
# Male db/db mice (obtained from the Animal House of Nicholas Piramal Research Centre, Goregaon, Mumbai, India) were used for this study (body weight in the range of 30-40 g and age is 6-8 weeks) and were kept eight per cage in individually ventilated cages at controlled temperature (22±1° C.) and humidity (45±5%). Food and water were provided ad libitum during their laboratory stay, except for four hours fasting prior to blood sample collection. 12 hours light and dark cycle was followed during the whole study period.
# After 4 hours fasting blood samples were collected from mice. Mice showing plasma glucose levels between 300 to 500 mg/dl were divided in groups (8-10 per group) such that the mean plasma glucose levels and variation within the group, for each group, is nearly the same. After grouping, mice in respective groups received treatment with 0.5% CMC vehicle, standard compound or test compounds for 10 days.
# After 4 hours fasting, mice were anaesthetized using isoflurane (inhalation anesthetic), and blood samples were collected through the retro orbital plexus. Collected blood samples were centrifuged at 7000 rpm for 10 minutes at 4° C.; Separated plasma was used for estimation of plasma glucose using diagnostic kits (Diasys, Germany). Plasma glucose levels of treated groups were normalized with control group using the following formula, which accounted for the changes in control group.
# Formula used for normalization was *: {1−(Ratio of mean plasma glucose levels of control group on day 10 to day 0)/(Ratio of plasma glucose levels of treated group on day 10 to day 0)}×100.
# lean C57Bl6/J mice = test: Evaluation of antiobesity, acute study: food intake in fasted lean mice; format: in vivo; settings: 100 mg/kg intraperitoneally, 2 hours after food introduction, p<0.001 vs vehicle
# Excerpt: The effect of standard (Sibutramine), Compound 1 and Compound 11 on food intake in lean C57Bl6/J mice at 2, 4, 6 and 24 hrs post-food introductions is indicated.
# The assay was designed as in reference, PCT publication WO 2003086306, the disclosure of which is incorporated by reference for the teaching of the assay.
# Male C57Bl6/J mice, weighing 20-25 g, were housed individually in the animal facility. Water and Chow (Amrut Laboratory Animal feed, Sangli, Maharashtra, India) were available ad libitum. One day before the study, the animals were weighed and separated into treatment groups having similar average body weight. For the experiment, the animals were deprived of food overnight for 16 hours. They were dosed intraperitoneally with test compounds (100 mg/kg) or comparator standard (Sibutramine, 3 mg/kg) in saline vehicle (10 mL/kg). Half an hour after drug administration the animals were presented with a pre-weighed amount of food in the food cup. Food that remained in the cup was measured at various time points. The effect of standard, and test compounds on food intake in fasted lean C57Bl6/J mice at 2, 4, 6 and 24 hrs post-food introductions was evaluated. […] (*** p<0.001 vs vehicle treated controls) (b) Chronic Study
# Mouse PPARγ = biological target: T1, Mouse PPARγ (Mus musculus, UniProt P37238); test: Mouse PPARγ assay (TransAM PPARγ ELISA, 3T3-L1 fibroblasts); format: cell-based; settings: 72 hrs, Compound 1 50 μM, Rosiglitazone 10 μM
# T1 construct: endogenous in cells; host or cells: 3T3-L1 fibroblasts
# T1 sequence (P37238 1-505): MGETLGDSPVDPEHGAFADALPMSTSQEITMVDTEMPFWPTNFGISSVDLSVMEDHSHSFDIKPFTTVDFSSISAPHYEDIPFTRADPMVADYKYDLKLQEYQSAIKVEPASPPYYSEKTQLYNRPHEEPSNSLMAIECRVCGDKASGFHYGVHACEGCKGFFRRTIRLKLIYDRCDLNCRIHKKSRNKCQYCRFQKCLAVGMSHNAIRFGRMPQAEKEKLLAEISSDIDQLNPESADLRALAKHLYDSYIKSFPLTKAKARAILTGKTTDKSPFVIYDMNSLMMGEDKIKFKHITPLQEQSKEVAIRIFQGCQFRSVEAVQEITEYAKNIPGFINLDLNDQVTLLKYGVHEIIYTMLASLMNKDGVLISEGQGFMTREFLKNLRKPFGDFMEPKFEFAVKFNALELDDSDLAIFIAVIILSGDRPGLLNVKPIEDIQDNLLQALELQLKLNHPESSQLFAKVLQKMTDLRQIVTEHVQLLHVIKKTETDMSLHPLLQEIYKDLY
# Method: The assay was designed as in the reference, Blood, 104(5), 1361-8, 2004, the disclosure of which is incorporated by reference for the teaching of the assay.
# 3T3-L1 fibroblasts were seeded in 6-well plates at a density of 4×10^4 cells/well and cultured in DMEM containing 10% calf serum. […] The plates were incubated for 72 hrs at 37° C. in a CO2 incubator with fresh medium containing test substances added after first 48 hrs. After 72 hrs, the medium was removed; the cell layer was washed and processed for the PPARγ assay as per the instruction of the manufacturer (Active Motif, North America, California, USA). PPARγ activation was determined using 96-well ELISA assay as per the instruction manual (TransAM PPARγ. Active Motif, Cat 0.40196).
# [3] = test system: diet induced obese (DIO) C57Bl6/J mice; test: Evaluation of antiobesity, chronic study: diet induced obese mice; format: in vivo; settings: 200 mg/kg intraperitoneally, 10 days of treatment
# Method: Diet induced obese (DIO) mice were treated with either standard (Sibutramine) or Compound 1 for 10 days.
# Cumulative body weight gain of diet induced obese (DIO) mice treated with either standard (Sibutramine) or Compound 1 for 10 days is indicated.
# The assay was designed as in the reference, British Journal of Pharmacology, 132, 1898-1904, 2001, the disclosure of which is incorporated by reference for the teaching of the assay. Male C57Bl6/J mice (3-4 weeks of age) were housed in groups of 10 animals per cage in the animal facility. High fat diet (D12451 Research Diets Inc., New Brunswick, N.J. 08901, USA), 45% kcal from fat) and water were provided ad libitum for 14 weeks. After this period, the animals were housed individually in cages. The animals were weighed and separated into groups with similar body weight. They were acclimatized to the experimental procedures for 2 days Animals were dosed intraperitoneally with test compound (200 mg/kg) or the standard (Sibutramine, 3 mg/kg) in 10 ml/kg of 0.5% CMC vehicle between 10:00 h-12:00 h. After drug administration the animals were presented with a pre-weighed amount of food in the food cup. Weight of feed remaining in the cup and body weight were recorded daily just prior to dosing. The change in weight and cumulative food intake were computed. The results are indicated in FIG. 2 and FIG. 3. • Conclusions: 1. […]
# Human PPARγ = biological target: T2, Human PPARγ (Homo sapiens, UniProt P37231); test: Human PPARγ transactivation assay (luciferase reporter, HEK293 cells); format: cell-based
# T2 construct: Human full length PPARγ cDNA was cloned into pSG5 expression vector; expressed in transfected cells; host or cells: HEK293
# T2 sequence (P37231 1-505): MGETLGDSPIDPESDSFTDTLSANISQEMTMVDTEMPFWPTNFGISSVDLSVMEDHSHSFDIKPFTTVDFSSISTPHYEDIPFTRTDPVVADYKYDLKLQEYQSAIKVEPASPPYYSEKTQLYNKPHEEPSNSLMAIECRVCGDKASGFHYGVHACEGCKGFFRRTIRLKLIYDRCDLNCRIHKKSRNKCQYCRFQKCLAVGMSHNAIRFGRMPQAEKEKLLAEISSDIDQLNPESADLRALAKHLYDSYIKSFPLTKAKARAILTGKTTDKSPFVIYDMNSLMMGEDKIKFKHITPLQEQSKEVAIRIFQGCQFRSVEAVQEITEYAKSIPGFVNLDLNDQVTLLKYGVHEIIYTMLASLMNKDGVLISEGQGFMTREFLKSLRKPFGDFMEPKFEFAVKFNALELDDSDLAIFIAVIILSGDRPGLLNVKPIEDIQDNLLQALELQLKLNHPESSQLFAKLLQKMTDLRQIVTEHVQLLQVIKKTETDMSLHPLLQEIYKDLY
# Method: The assay was designed as in the reference, Biochem. Biophys. Res. Comm. 175:865-871, 1991, the disclosure of which is incorporated by reference for the teaching of the assay.
# Human PPARγ activity was evaluated by transactivation using a luciferase reporter gene. […] Human full length PPARγ cDNA was cloned into pSG5 expression vector (Stratagene, Lo Jolla, Calif.).
# HEK293 cells were seeded in 24 well plates and grown in DMEM supplemented with 10% (v/v) FCS. After 24 hours, they were transfected with 100 ng of hPPARγ receptor and 300 ng of AOX-3×PPRE-LUC reporter construct per well using Fugen 6 transfection reagent (Roche, Indianapolis, Ind.). […] The control was 0.1% DMSO. After 48 hours, transactivation activity was determined by luciferase assay using Steady Glow reagent (Promega, Madison, Wis.).
Structure (SMILES),"% of Rosiglitazone (comparison with Rosiglitazone, glucose uptake) [1]","Fold Vehicle (fold activity over vehicle, glucose uptake) [1]",also measured
"CC(=O)N1CCN(c2ccc(Oc3ncc(NS(=O)(=O)c4ccc(C(F)(F)F)cc4Cl)cc3Cl)cc2)CC1 [Compound 5, N-(6-(4-(4-Acetylpiperazin-1-yl)phenoxy)-5-chloropyridin-3-yl)-2-chloro-4-(trifluoromethyl)benzenesulfonamide]",63.94%,1.85 ± 0.04,
"CC(=O)N1CCN(c2ccc(Oc3ncc(NC(=O)CCC(=O)O)cc3Cl)cc2)CC1 [Compound 14, 4-(6-(4-(4-Acetylpiperazin-1-yl)phenoxy)-5-chloropyridin-3-ylamino)-4-oxobutanoic acid]",27.5%,1.49 ± 0.05,Normalization with control (plasma glucose reduction) ([2]; 100 mpk bid): Inactive
"O=S(=O)(Nc1cnc(Oc2ccccc2-c2nc3ccccc3s2)c(Cl)c1)c1ccc(Cl)cc1Cl [Compound 15, N-(6-(2-(Benzo[d]thiazol-2-yl)phenoxy)-5-chloropyridin-3-yl)-2,4-dichlorobenzene-sulfonamide]",36.7%,2.0 ± 0.13,
"CC(=O)N1CCN(c2ccc(Oc3ncc(NS(=O)(=O)c4ccc(Cl)cc4Cl)cc3Cl)cc2)CC1 [Compound 1, N-(6-(4-(4-Acetylpiperazin-1-yl)phenoxy)-5-chloropyridin-3-yl)-2,4-dichlorobenzene-sulfonamide]",61.4%,2.10 ± 0.05,Inhibition of food intake (lean C57Bl6/J mice): effective in inhibiting food intake; PPARγ activity (% of rosiglitazone) (Mouse PPARγ): 5.1 % of rosiglitazone; Cumulative body weight gain [3]: effective in reducing cumulative body weight gain; Cumulative food intake [3]: effective in reducing cumulative food intake; PPARγ activity (% of rosiglitazone) (Human PPARγ): 6.4 % of rosiglitazone; melting point: 215 to 216 °C; Normalization with control (plasma glucose reduction) ([2]; 100 mpk bid): 46.07 ± 4.55
"COc1ccc(OC)c(S(=O)(=O)Nc2cnc(Oc3ccc(N4CCN(C(C)=O)CC4)cc3)c(Cl)c2)c1 [Compound 4, N-(6-(4-(4-Acetylpiperazin-1-yl)phenoxy)-5-chloropyridin-3-yl)-2,5-dimethoxy-benzenesulfonamide]",41.33%,1.55 ± 0.03,
"O=S(=O)(Nc1cnc(Oc2ccc(N3CCNCC3)cc2)c(Cl)c1)c1ccc(Cl)cc1Cl [Compound 11, 2,4-Dichloro-N-(5-chloro-6-(4-(piperazin-1-yl)phenoxy)pyridin-3-yl)benzene sulfonamide]",,,Inhibition of food intake (lean C57Bl6/J mice): effective in inhibiting food intake
"CC(=O)N1CCN(c2ccc(Oc3ncc(NS(=O)(=O)c4ccc(Cl)c(Cl)c4)cc3Cl)cc2)CC1 [Compound 6, N-(6-(4-(4-Acetylpiperazin-1-yl)phenoxy)-5-chloropyridin-3-yl)-3,4-dichlorobenzene-sulfonamide]",69.76%,1.93 ± 0.06,
"CN(CCOc1ccc(CC2SC(=O)NC2=O)cc1)c1ccccn1 (stereo not shown) [Rosiglitazone, reference compound]",,,Normalization with control (plasma glucose reduction) ([2]; Rosiglitazone 5 mpk bid): 55.73 ± 4.46 and 53.34 ± 4.11
